Some test systems named below: HL-60; SK-MEL-28; NCI-H460; SN12C; NCI-H522; HCC 2998; RXF 393; SF-268; SNB-19; KM12; TK-10; K562; ACHN; SF-539; 786-0; MOLT-4; UACC-62; OVCAR-3.
Holding throughout (assay): NCI-60 cell line screen, 48 h

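Compound exposure: 48 hours, 5 concentrations, 96-well plates. Abbreviation: GI50, concentration required for 50% inhibition of growth.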 Activity calls are given as the source filed them. Rule as the data show it: active = GI50 up to about 1.1 µM and inactive = higher.

With `O=C1CCC2(c3ccc(Cl)cc3)Nc3ccccc3N12` (stereo not drawn), the GI50 is 35.5 µM (inactive) with HL-60; > 100 µM (inactive) in the experiment on SK-MEL-28; > 100 µM (inactive) with NCI-H460; > 100 µM (inactive) with SN12C; 55.5 µM (inactive) in the experiment with NCI-H522; > 100 µM (inactive) in the experiment with HCC 2998. For the same compound, the GI50 is 48.3 µM (inactive) in the experiment on RXF 393; 83.9 µM (inactive) in the experiment on SF-268; > 100 µM (inactive) in the experiment with SNB-19; > 100 µM (inactive) with KM12; > 100 µM (inactive) in the experiment on TK-10; 54.5 µM (inactive) with K562. The GI50 is 60.4 µM (inactive) in the experiment with ACHN, > 100 µM (inactive) in the experiment on SF-539, > 100 µM (inactive) with 786-0 and 30.3 µM (inactive) with MOLT-4.

With `Cc1coc2c1C(=O)C(=O)c1ccccc1-2`, the GI50 in the experiment on SK-MEL-28 was 1.71 µM (inactive); in the experiment with NCI-H460, 1.77 µM (inactive); in the experiment on SN12C, 0.838 µM (active); in the experiment with NCI-H522, 1.72 µM (inactive); in the experiment on HCC 2998, 1.9 µM (inactive); in the experiment on UACC-62, 1.59 µM (inactive). The GI50 in the experiment with RXF 393 was 1.74 µM (inactive); in the experiment on OVCAR-3, 1.06 µM (active); in the experiment with KM12 it was 1.81 µM (inactive); in the experiment with TK-10 it was 1.9 µM (inactive); with K562, 0.335 µM (active); in the experiment with SF-539, 1.52 µM (inactive). Also, the GI50 was 1.84 µM (inactive) in the experiment with 786-0 and 2.21 µM (inactive) with MOLT-4.

For `CNS(=O)(=O)NN(C)S(=O)(=O)c1ccc(C)cc1`, the GI50 with HL-60, with SK-MEL-28, in the experiment on NCI-H460, in the experiment on SN12C, in the experiment with NCI-H522 and with HCC 2998 was > 100 µM (inactive) in each case. The GI50 with UACC-62, with RXF 393, with SF-268, in the experiment with SNB-19, in the experiment with OVCAR-3 and in the experiment on KM12 was > 100 µM (inactive) throughout. For the same compound, the GI50 is > 100 µM (inactive) in the experiment on TK-10; > 10 µM (inactive) with K562; > 100 µM (inactive) with ACHN; > 100 µM (inactive) in the experiment on SF-539; > 100 µM (inactive) in the experiment on 786-0; > 100 µM (inactive) with MOLT-4.

On to `Cc1ccccc1C(=O)c1ccccc1O`, for which the GI50 in the experiment with HL-60, in the experiment with SK-MEL-28, in the experiment on NCI-H460, in the experiment with SN12C, in the experiment on HCC 2998 and in the experiment on UACC-62 was > 100 µM (inactive) throughout. In addition, the GI50 in the experiment with RXF 393, in the experiment with SF-268, in the experiment with SNB-19, in the experiment on OVCAR-3, with KM12 and in the experiment on TK-10 was > 100 µM (inactive) each time. Further, the GI50 in the experiment with K562, with ACHN, with SF-539, in the experiment on 786-0 and in the experiment on MOLT-4 was > 100 µM (inactive) throughout.

As to `CCOC(=O)C1=C(Nc2ccc(Cl)c(Cl)c2)OC/C1=N\NC(=O)Cc1ccccc1`, the GI50 with HL-60, in the experiment with SK-MEL-28, in the experiment with NCI-H460, in the experiment on SN12C, in the experiment on NCI-H522 and in the experiment on HCC 2998 was > 100 µM (inactive) throughout. Further, the GI50 in the experiment with UACC-62, with RXF 393, in the experiment on SF-268, in the experiment with SNB-19, in the experiment with OVCAR-3 and with KM12 was > 100 µM (inactive) in each case. The GI50 with TK-10 is > 100 µM (inactive); in the experiment on K562 it was 89.1 µM (inactive); in the experiment on SF-539, > 100 µM (inactive); in the experiment with 786-0, > 100 µM (inactive); with MOLT-4, 61.1 µM (inactive).

With `COC(=O)C1=CC(=O)[C@@H]2CCCC[C@H]12`, the GI50 in the experiment with HL-60, with SK-MEL-28, in the experiment with NCI-H460, in the experiment on SN12C, in the experiment on NCI-H522 and in the experiment on HCC 2998 was > 100 µM (inactive) each time. Also, the GI50 in the experiment with UACC-62, in the experiment with RXF 393, in the experiment on SF-268, in the experiment on SNB-19, with OVCAR-3 and with KM12 was > 100 µM (inactive) in each case. Also, the GI50 in the experiment with TK-10, in the experiment with K562, in the experiment on ACHN, with SF-539, with 786-0 and with MOLT-4 was > 100 µM (inactive) in each case.

With `CC1=C(Cl)C=CP(=O)(OC(C)C)C1` (stereo not drawn), the GI50 is 52 µM (inactive) with HL-60; > 100 µM (inactive) in the experiment with SK-MEL-28; > 100 µM (inactive) in the experiment on NCI-H460; > 100 µM (inactive) with SN12C; 27.8 µM (inactive) in the experiment with NCI-H522; > 100 µM (inactive) in the experiment with HCC 2998. Moreover, the GI50 with UACC-62, in the experiment on RXF 393, with SF-268, in the experiment on OVCAR-3, with KM12 and with TK-10 was > 100 µM (inactive) in each case. The GI50 in the experiment on K562 is 47.4 µM (inactive); in the experiment on ACHN, > 100 µM (inactive); in the experiment on SF-539, > 100 µM (inactive); in the experiment on 786-0, > 100 µM (inactive); in the experiment with MOLT-4 it was 40.7 µM (inactive).

Consider `COc1cccc(C2SCc3nc4ccccc4n32)c1` (stereo not drawn), for which the GI50 with HL-60 is 30.1 µM (inactive); in the experiment on SK-MEL-28 it was 81.3 µM (inactive); with NCI-H460, > 100 µM (inactive); with SN12C, 99.1 µM (inactive); in the experiment with HCC 2998, 45.6 µM (inactive); with UACC-62, 49.9 µM (inactive). The GI50 is 53.6 µM (inactive) in the experiment with RXF 393; 73.1 µM (inactive) in the experiment on SF-268; > 100 µM (inactive) in the experiment with SNB-19; 35.2 µM (inactive) with OVCAR-3; 56.4 µM (inactive) with KM12; 14.7 µM (inactive) in the experiment with TK-10. Besides, the GI50 in the experiment on K562 is 45.4 µM (inactive); in the experiment with ACHN, 39.1 µM (inactive); in the experiment with SF-539, > 100 µM (inactive); in the experiment with 786-0 it was > 100 µM (inactive); with MOLT-4, 66.1 µM (inactive).

In the case of `CC(=O)Nc1ccc(/C=C/c2ccc(NC(=O)Nc3ccc(/C=C/c4ccc(NC(C)=O)cc4S(=O)(=O)O)c(S(=O)(=O)O)c3)cc2S(=O)(=O)O)c(S(=O)(=O)O)c1`, the GI50 in the experiment on HL-60 was 60.1 µM (inactive); with SK-MEL-28, > 100 µM (inactive); in the experiment on NCI-H460, > 100 µM (inactive); in the experiment with SN12C it was > 100 µM (inactive); in the experiment on NCI-H522, > 100 µM (inactive); in the experiment on HCC 2998 it was 98.6 µM (inactive). The GI50 in the experiment on UACC-62, in the experiment on RXF 393, in the experiment with SF-268, in the experiment on SNB-19, in the experiment on OVCAR-3 and in the experiment with KM12 was > 100 µM (inactive) in each case. In addition, the GI50 in the experiment on K562, in the experiment on SF-539 and in the experiment with MOLT-4 was > 100 µM (inactive) each time.

As for `COc1cc2c(cc1OC)[C@@H](C(O)c1ccccc1)NCC2` (stereo partly drawn), the GI50 in the experiment with HL-60, in the experiment on NCI-H460, in the experiment on SN12C, in the experiment on NCI-H522, in the experiment on HCC 2998 and with UACC-62 was > 100 µM (inactive) in each case. The GI50 with RXF 393, with SF-268, in the experiment with SNB-19, with OVCAR-3, in the experiment with KM12 and with TK-10 was > 100 µM (inactive) in each case. Moreover, the GI50 in the experiment on K562, in the experiment on ACHN, in the experiment with SF-539, in the experiment on 786-0 and in the experiment with MOLT-4 was > 100 µM (inactive) each time.

Consider `CC[C@@]1(O)C[C@H](OC2CC(N(C)C)C(OC3CC(O)C(OC4CC(O)C(O)C(C)O4)C(C)O3)C(C)O2)c2c(cc3c(c2O)C(=O)c2c(O)ccc(O)c2C3=O)[C@H]1C(=O)OC` (stereo partly drawn), for which the GI50 in the experiment on HL-60 was 0.0448 µM (active); in the experiment with SK-MEL-28 it was 0.0369 µM (active); in the experiment on NCI-H460 it was 0.00577 µM (active); in the experiment with SN12C, 0.0148 µM (active); in the experiment with NCI-H522 it was 0.0343 µM (active); in the experiment on HCC 2998, 0.1 µM (active). Further, the GI50 is 0.017 µM (active) in the experiment with UACC-62; 0.0356 µM (active) with RXF 393; 0.0263 µM (active) with SF-268; 0.0346 µM (active) with SNB-19; 0.0321 µM (active) in the experiment with OVCAR-3; < 0.0174 µM (active) with KM12. For the same compound, the GI50 in the experiment on K562 was 0.0109 µM (active); in the experiment on SF-539 it was < 0.0214 µM (active); with MOLT-4, 0.0141 µM (active).

As to `COc1ccc(-c2onc(-c3c(C)cc(C)cc3C)c2C2=NCCN2)cc1`, the GI50 in the experiment with HL-60 is 16.4 µM (inactive); with SK-MEL-28 it was 22.8 µM (inactive); in the experiment with NCI-H460, 28.8 µM (inactive); with SN12C, 48.6 µM (inactive); with NCI-H522, > 10 µM (inactive); in the experiment with HCC 2998, 44.1 µM (inactive). In addition, the GI50 in the experiment on UACC-62 is 36.3 µM (inactive); in the experiment with RXF 393 it was 39.2 µM (inactive); in the experiment with SF-268, 36.7 µM (inactive); in the experiment with SNB-19, 33.9 µM (inactive); in the experiment with OVCAR-3, > 10 µM (inactive); in the experiment on KM12, 44.5 µM (inactive). The GI50 with K562 was 28.2 µM (inactive); in the experiment on ACHN, 86.3 µM (inactive); in the experiment on SF-539, 20 µM (inactive); in the experiment with 786-0, 31.1 µM (inactive); with MOLT-4 it was 39.8 µM (inactive).

These data come from ChEMBL document CHEMBL1201862, “PubChem BioAssay data set” (2004).
